Values quoted from earlier work as cited in US20230065964A1, “COMPOSITION FOR ENHANCING UROLITHIN PRODUCTION IN A HUMAN SUBJECT” (Migalis ApS, priority 2020, published 2023).

How the values were obtained:
[1] = test system: Chaenorhabditis elegans; conditions: for Pharyngeal pumping rate and mobility: during aging
[2] = test system: old mice
[3] = test system: skeletal muscle of humans; conditions: 28 days oral administration, 500 mg/d and 1000 mg/d

SMILES	Pharyngeal pumping rate and mobility [1]	mitochondrial biogenesis ([1]; older worms)	mitophagy ([1]; throughout the duration of the treatment)	Lean muscle mass [2]	greater level of spontaneous exercise (muscle function) [2] [%]	greater running endurance (endurance capacity) [2] [%]	expression of autophagy and mitophagy transcripts ([2]; molecular level)	mitochondrial biogenesis in the skeletal muscle [3]
O=c1oc2cc(O)ccc2c2ccc(O)cc12 [Urolithin A, urolithin A]	improved	activated	activated mitophagy	did not increase	57	42	general tendency for a higher expression	stimulated
O=c1oc2cc(O)ccc2c2cc(O)c(O)cc12 [urolithin C]	mild to no benefit							
O=c1oc2c(O)c(O)ccc2c2cc(O)c(O)cc12 [urolithin D]	mild to no benefit							
